Assay results published in the METLIN SMRT retention time set (Domingo-Almenara et al. 2019).

assay: gradient 5% acetonitrile 3 min, to 50% in 2 min, to 85% in 15 min, held 3 min, 100 µL/min; conditions: column: Zorbax Extend-C18 2.1 x 50 mm; eluents: water / acetonitrile, 0.1% formic acid
Method in brief: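 Retention times come from adduct peaks that were picked computationally and then checked by hand. The standards, pure and pooled in mixtures of ~100 molecules, were run on a Zorbax Extend-C18 column (2.1 × 50 mm, 1.8 μm) at 100 μL/min with water and acetonitrile, each with 0.1% formic acid. Detection was by quadrupole time-of-flight mass spectrometry in positive and negative ionization mode, with a dead volume of 40 μL and a dwell volume of 900 μL.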

Row | Compound | RP-LC retention time
1 | Cc1cccc(C2(O)C(=O)N(CC(=O)NCc3ccco3)c3ccccc32)c1 (centres undefined) | 630 s
2 | COc1ccc(C)cc1NC(=O)N1CCN(c2cnn3c(C)nnc3c2)CC1 | 648 s
3 | CCCc1nc2ccc(CCC(=O)NCc3ccc(F)cc3)cc2[nH]1 | 624 s
4 | CCC(=O)N1CCc2cc(C(=O)NC(C)C)ccc21 | 685 s
5 | CCCNC(=O)C1CCN(c2ccc(SCC(=O)Nc3ccc4c(c3)OCO4)nn2)CC1 | 610 s
6 | COCc1nc2c(NC(=O)C(C)C)cccn2n1 | 653 s
7 | CC1=C(c2ccccc2)S(=O)(=O)N=C1N1CCCN(C(=O)COc2ccccc2)CC1 | 836 s
8 | Cc1ccc(Nc2c(-c3ccc(N4CCOCC4)cc3)nc3ncccn23)cc1Cl | 751 s
9 | Cc1ccc(-n2c(=O)n(CC(=O)N3CCCCC3)c3cccnc32)cc1 | 780 s
10 | Cc1cc(C)c(S(=O)(=O)N2CCCCC2C(=O)N2CCN(c3ccccc3F)CC2)c(C)c1 (centres undefined) | 1250 s
11 | CCOc1ccc(NC(=O)Cn2nc3cc(C)nc(-c4cccc(Cl)c4)n3c2=O)cc1 | 971 s
12 | COc1cc(-c2cc(CN(CC3CCCO3)C(=O)C3CCCCC3)no2)cc(OC)c1OC (centres undefined) | 968 s
13 | CCc1ccc(Nc2nc(C(=O)NCCc3cnc[nH]3)nc3ccccc23)cc1 | 603 s
14 | CCC(C)NC(=O)C1CCN(Cc2cc3ccccc3n2Cc2ccccc2Cl)CC1 (centres undefined) | 784 s
15 | COc1ccc(-c2nc(C)cc(C)c2CNS(=O)(=O)c2ccccc2)cc1 | 639 s
16 | O=C(C1CCCN(c2ncnc3c2nc2n3CCCCC2)C1)N1CCN(c2ccccc2)CC1 (centres undefined) | 803 s
17 | COCCN(CCOC)C(=O)Cc1csc(NC(=O)Nc2ccc(Cl)cc2)n1 | 733 s
18 | O=C(CCCc1ccccc1)N1CC(n2ccnc2)C1 | 606 s
19 | CCOc1ccc(C(=O)NC2CCN(c3cc(-c4ccccc4)[nH]n3)C2)cc1OCC (centres undefined) | 748 s
20 | Cc1ccc2c(Nc3ccc(C#N)cc3)c(C(=O)N3CCCC3)cnc2n1 | 576 s
21 | CCOC(=O)c1cccc(N2C=C(C(=O)N3CCCC3)S(=O)(=O)c3ccccc32)c1 | 802 s
22 | COc1ccc(OC)c(S(=O)(=O)N2CCc3c(c(-c4nnc(-c5ccccc5)o4)nn3C)C2)c1 | 912 s

Row | Compound | RP-LC retention time
23 | O=C1CN(C(=O)CSc2ccccc2)c2ccccc2N1 | 694 s
24 | CC(NC(=O)C1CCCN(C(=O)c2cc3sccc3n2C)C1)C12CC3CC(CC(C3)C1)C2 (centres undefined) | 1090 s
25 | COCCN1C(=O)[C@H]2CN(Cc3ccccc3)C[C@H]2C1=O | 572 s
26 | COCCNC(=O)N1CCCN(C2=NS(=O)(=O)C(c3ccc(F)cc3)=C2C)CC1 | 669 s
27 | CCc1cc(C(=O)N2CCN(CC(C)C)CC2)nc2cc(-c3ccccn3)nn12 | 610 s
28 | CSc1ccc(CNC(=O)c2cn3c(n2)COCC3)cc1 | 663 s
29 | CCN1CCCC1CNC(=O)Cn1c2ccccc2c2cnn(C)c(=O)c21 (centres undefined) | 554 s
30 | COc1ccc(OC)c(NC(=O)c2ccc3nc(-c4ccccc4)cn3c2)c1 | 762 s
31 | CN1C(=O)Cc2ccccc2C1C(=O)NCc1cccc(F)c1 (centres undefined) | 729 s
32 | O=C1CCC2(C(=O)NCCc3ccccc3)CCCC=C2N1c1ccccc1 (centres undefined) | 808 s
33 | CC(C)NC(=O)CN1C(=O)C2CCCCN2c2ccc(S(=O)(=O)N3CCCCC3)cc21 (centres undefined) | 850 s
34 | Cc1ccccc1CC(=O)N1CCc2cc(-c3ccno3)ccc21 | 1020 s
35 | CN(C)C(CNC(=O)c1cc(=O)c2ccccc2o1)c1cn(C)c2ccccc12 (centres undefined) | 554 s
36 | CCN(CC)CCN1c2ccccc2Sc2ccc3ccccc3c21 | 893 s
37 | COCCNC(=O)c1csc(N2CCN(c3ccc(Cl)cc3)CC2)n1 | 972 s
38 | CCc1noc([C@@H]2CC(F)(F)CN2C(=O)Cn2cc(C)cn2)n1 | 718 s
39 | CCc1cc(C(=O)N2CCN(CC)CC2)nc2cc(-c3ccco3)nn12 | 616 s
40 | COc1ccc(Cl)cc1S(=O)(=O)N1CCC2(CC1)c1nccn1CCN2C | 646 s
41 | COC(=O)c1sccc1NC(=O)Cn1c(C)cc(C)c(-c2nc(-c3ccccc3)no2)c1=O | 1060 s
42 | CCOc1ccc(CNc2nc3ccncc3n(CC)c2=O)cc1OC | 618 s
43 | O=S(=O)(Nc1ccccc1)c1cccc(-c2nc(-c3ccccc3)no2)c1 | 1210 s
44 | CCOC(=O)CNC(=O)C1(C)Cn2c(ccc2-c2ccco2)C(=O)N1Cc1ccccc1Cl (centres undefined) | 876 s
